Holding throughout (test): growth of human tumour cells (NCI), 48 h
Experiment [1] has as its system 786-0 renal.
In experiment [2] the test system is HCT-15 colon.
Experiment [3] relates to K-562 leukemia.
Experiment [4] has as its system OVCAR-5 ovarian.
Experiment [5] relates to SK-MEL-5 melanoma.
Experiment [6] concerns SNB-19 CNS.
Experiment [7] has as its system SR leukemia.
Experiment [8] relates to SW-620 colon.
For experiment [9], the system named is UACC-62 melanoma.
In experiment [10] the test system is UO-31 renal.

SMILES strings stand for the structures.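 Compound exposure: 48 hours, 5 concentrations, 96-well plates. The concentration for 50% growth inhibition is given as GI50. TGI is the concentration that stops growth completely.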 Bounds are passed on as bounds.

With `C/C(=N\NS(=O)(=O)c1c(C)cc(C)cc1C)c1ccc[n+]([O-])n1`, the TGI is 36 µM in [1]; 28.5 µM in experiment [2]; 30.2 µM in experiment [3]; 56.1 µM in experiment [4]; greater than 100 µM in experiment [5]; greater than 100 µM in experiment [6]. The TGI in [7] was found to be 57.7 µM; in experiment [8], 22.3 µM; in experiment [9], 31.5 µM; in experiment [10], 52.8 µM.
For the compound `CCOC(=O)NC(=O)c1cn(C2OC(COC(=O)CCCCCCCCC(=O)OCC3OC(n4cc(C(=O)NC(=O)OCC)c(=O)[nH]c4=O)C4OC(C)(C)OC34)C3OC(C)(C)OC32)c(=O)[nH]c1=O` (stereo not given), the TGI in experiment [1], in experiment [2], in [3], in [4], in experiment [5] and in experiment [6] was greater than 100 µM throughout. For the same compound, the TGI in experiment [7], in [8], in [9] and in [10] was greater than 100 µM throughout.
In the case of `Cc1cc(C)c(O)c(CNCCCNCc2cc(C)cc(C)c2O)c1`, the GI50 in experiment [1] is 4.69 µM; in experiment [2] it was 2.01 µM; in experiment [3], 2.11 µM; in experiment [4] it was 4.23 µM; in [5], 1.57 µM; in experiment [6], 3.88 µM. Also, the GI50 in experiment [7] is 2.06 µM; in experiment [8], 3.19 µM; in experiment [9], 1.89 µM; in experiment [10], 2.22 µM. The TGI in experiment [1] turned out to be 18.7 µM; in experiment [2] it was 4.66 µM; in experiment [3], 4.89 µM; in [4], 19.5 µM; in [5] it was 2.93 µM; in [6], 15.1 µM. In addition, the TGI turned out to be 6 µM in experiment [7], 11 µM in experiment [8], 3.43 µM in experiment [9] and 12.1 µM in [10].
Take `N/C(=N\N=C\c1ccc(O)c(O)c1)NO`: the TGI in experiment [1], in experiment [2], in experiment [3], in experiment [4], in experiment [5] and in experiment [6] was greater than 100 µM throughout. The TGI in [7], in experiment [8], in experiment [9] and in [10] was greater than 100 µM in each case.
In the case of `O=C1CCC(N2C(=O)c3cccc(NCCOCCOCCNC(=O)c4cc5c(o4)C(=O)c4ccccc4C5=O)c3C2=O)C(=O)N1` (stereo not given), the GI50 in [1] is 3.14 µM; in experiment [2] it was 4.08 µM; in experiment [3], 2.55 µM; in experiment [4], 1.67 µM; in [5], 0.787 µM; in experiment [6], 1.55 µM. The GI50 in experiment [7] is 1.76 µM; in experiment [8] it was 1.95 µM; in [9] it was 1.46 µM; in experiment [10], 3.51 µM. Moreover, the TGI in [1] turned out to be 10.9 µM; in experiment [2] it was 19.2 µM; in experiment [3], 12.7 µM; in [4], 3.07 µM; in [5] it was 2.07 µM; in experiment [6], 3.52 µM. Further, the TGI in experiment [7] is 22.9 µM; in experiment [8] it was 4.64 µM; in [9], 2.98 µM; in experiment [10], 12.6 µM.
Take `CCCc1n(Cc2ccc3ccccc3n2)cc[n+]1Cc1ccc2ccccc2c1`: the GI50 was 2.93 µM in experiment [1]; 12 µM in experiment [2]; 0.428 µM in [3]; 2.39 µM in [4]; 0.466 µM in experiment [5]; 0.551 µM in experiment [6]. For the same compound, the GI50 in experiment [7] was 0.472 µM; in experiment [8] it was 1.91 µM; in experiment [9], 0.574 µM; in experiment [10], 12 µM. The TGI in experiment [1] worked out at 10.2 µM; in experiment [2], 25.4 µM; in experiment [3] it was 8.27 µM; in experiment [4], 12.5 µM; in [5], 1.69 µM; in experiment [6], 11.4 µM. Besides, the TGI in [7] was determined as 3.03 µM; in experiment [8], 11.7 µM; in experiment [9], 2.39 µM; in [10], 25.3 µM.
Regarding `CCN(CC)c1ccc(/C=N/NC(=O)c2ccccc2Nc2ccnc(C(F)(F)F)c2)c(O)c1`, the GI50 in experiment [1] was 0.183 µM; in experiment [2] it was 0.0457 µM; in [3], 0.384 µM; in [4], 0.377 µM; in experiment [5] it was 0.143 µM; in [6], 0.363 µM. In addition, the GI50 in experiment [7] was 0.0721 µM; in experiment [8], 0.407 µM; in experiment [9] it was 0.206 µM; in [10], 0.112 µM. Besides, the TGI in [1] is 0.984 µM; in [2], greater than 100 µM; in [3], greater than 100 µM; in experiment [4] it was greater than 100 µM; in experiment [5] it was 0.723 µM; in experiment [6] it was greater than 100 µM. For the same compound, the TGI in [7] is 0.728 µM; in experiment [8] it was greater than 100 µM; in experiment [9] it was 0.852 µM; in experiment [10] it was 5.76 µM.
In the case of `CCCCCCCCCCCCC(NC(C)=O)(C(=O)OCC)C(=O)OCC`, the GI50 in experiment [1] was 14.9 µM; in experiment [2], 9.38 µM; in experiment [3] it was 7.55 µM; in experiment [4], 13.7 µM; in [5], 3.87 µM; in experiment [6], 12.8 µM. In addition, the GI50 in [7] is 6.94 µM; in experiment [8] it was 13 µM; in experiment [9] it was 4.88 µM; in experiment [10], 7.39 µM. Further, the TGI was 29.3 µM in experiment [1]; 23 µM in experiment [2]; greater than 100 µM in experiment [3]; 27.3 µM in experiment [4]; 16 µM in experiment [5]; 25.6 µM in [6]. In addition, the TGI in experiment [7] was 48.2 µM; in experiment [8], 26.9 µM; in [9], 19.6 µM; in experiment [10], 27.5 µM.
Turning to `CC(=Nc1ccccc1)C1=C(O)C(Cc2ccc(F)cc2)NC1=O` (stereo not given), the GI50 in experiment [1] was 9.67 µM; in [2] it was 0.488 µM; in experiment [3] it was 0.343 µM; in experiment [4] it was 5.21 µM; in experiment [5] it was 0.472 µM; in experiment [6], 4.75 µM. Also, the GI50 was 0.26 µM in [7], 0.432 µM in [8], 0.664 µM in [9] and 5.42 µM in experiment [10]. Besides, the TGI in experiment [1], in [2], in experiment [3], in experiment [4], in [5] and in experiment [6] was greater than 100 µM each time. In addition, the TGI in experiment [7], in experiment [8], in experiment [9] and in [10] was greater than 100 µM each time.
On to `CC(CCC(=O)O)c1ccc(Br)cc1` (stereo not given), for which the TGI in [1], in experiment [2], in experiment [3], in experiment [4], in experiment [5] and in [6] was greater than 100 µM throughout. Also, the TGI in experiment [7], in experiment [8], in experiment [9] and in [10] was greater than 100 µM throughout.
